The source made the active and inactive calls. The calls are words filed in the database; no cut-off is given here.
What was measured:
A549 [1] = assay: Cytotoxicity against human A549 cells assessed as reduction in cell growth at 20 uM measured for 2 days by MTT assay; type: functional, cell-based; details: time 2.0 day
A549 [2] = assay: Antimigratory activity against TGFbeta-stimulated human A549 cells assessed as inhibition of cell migration at 20 uM measured for 1 day by cell scratch assay; type: functional, cell-based
A549 [3] = assay: Antimigratory activity against TGFbeta-stimulated human A549 cells assessed as inhibition of cell migration at 10 uM measured for 1 day by cell scratch assay; type: functional, cell-based
[4] = target: T1, Heterogeneous nuclear ribonucleoprotein M (Homo sapiens) (UniProt P52272); assay: Competitive inhibition of hnRNP M to in human A549 cells at 50 uM by immunoblotting analysis; type: cell-based
T1 sequence (whole entry): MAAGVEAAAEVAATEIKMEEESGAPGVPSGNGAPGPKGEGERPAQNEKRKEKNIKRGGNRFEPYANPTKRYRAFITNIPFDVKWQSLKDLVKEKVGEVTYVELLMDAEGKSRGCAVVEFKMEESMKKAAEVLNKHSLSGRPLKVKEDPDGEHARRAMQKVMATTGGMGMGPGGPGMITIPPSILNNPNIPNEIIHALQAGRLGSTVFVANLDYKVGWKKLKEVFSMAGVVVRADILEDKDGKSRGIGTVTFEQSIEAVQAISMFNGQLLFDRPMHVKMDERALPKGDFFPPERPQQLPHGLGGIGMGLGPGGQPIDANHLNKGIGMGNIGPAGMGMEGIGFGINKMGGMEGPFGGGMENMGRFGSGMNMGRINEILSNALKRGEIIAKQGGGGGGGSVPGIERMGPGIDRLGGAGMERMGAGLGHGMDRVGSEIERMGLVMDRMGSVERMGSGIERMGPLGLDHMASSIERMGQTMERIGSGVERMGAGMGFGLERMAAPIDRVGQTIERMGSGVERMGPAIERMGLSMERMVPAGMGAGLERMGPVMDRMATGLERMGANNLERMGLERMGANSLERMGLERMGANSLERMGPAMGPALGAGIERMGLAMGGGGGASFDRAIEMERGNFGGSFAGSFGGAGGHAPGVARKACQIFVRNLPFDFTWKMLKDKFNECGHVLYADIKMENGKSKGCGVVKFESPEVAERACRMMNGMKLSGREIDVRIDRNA

A549 [5] = assay: Downregulation of CD44 mRNA expression in human A549 cells at 20 uM measured for 1 day bt RT-qPCR analysis; type: functional, cell-based
A549 [6] = assay: Downregulation of Vimentin mRNA expression in human A549 cells at 20 uM measured for 1 day bt RT-qPCR analysis; type: functional, cell-based
A549 [7] = assay: Downregulation of E-cadherin mRNA expression in human A549 cells at 20 uM measured for 1 day bt RT-qPCR analysis; type: functional, cell-based
A549 [8] = assay: Antimigratory activity against TGFbeta-stimulated human A549 cells assessed as inhibition of cell migration measured for 1 day by cell scratch assay; type: functional, cell-based
A549 [9] = assay: Downregulation of Zeb 1 mRNA expression in human A549 cells at 20 uM measured for 1 day bt RT-qPCR analysis; type: functional, cell-based
A549 [10] = assay: Antimigratory activity against TGFbeta-stimulated human A549 cells assessed as inhibition of cell migration at 1 uM measured for 1 day by cell scratch assay; type: functional, cell-based

c1ccc(-n2c(SCc3nc4ccccc4s3)nc3ccccc32)cc1
Activity (A549 [1]): inactive

Cc1noc(C)c1CSc1nc2ccccc2s1
Activity (A549 [1]): inactive

COc1ccc(CSc2nc3ccccc3n2-c2ccccc2)cc1
Activity (A549 [1]): inactive

Cc1noc(C)c1CSc1nc2ccccc2[nH]1
Activity (A549 [1]): inactive | Activity (A549 [2]): Active | Activity (A549 [3]): Active | inhibition call (active/inactive) [4]: Active | Activity (A549 [5]): Active | Activity (A549 [6]): Active | Activity (A549 [7]): Active

Cn1c(SCc2nc3ccccc3s2)nc2ccccc21
Activity (A549 [1]): inactive

Cc1noc(C)c1CSc1nc2ccccc2n1-c1ccccc1
Activity (A549 [1]): inactive | Activity (A549 [8]): inactive

Cc1noc(C)c1CSc1nc2ccccc2n1C
Activity (A549 [1]): inactive

Cc1ccnc(SCc2nc3ccccc3s2)n1
Activity (A549 [1]): inactive | Activity (A549 [3]): Active | inhibition [4]: Active

c1ccc(-n2c(SCc3ccccn3)nc3ccccc32)cc1
Activity (A549 [1]): inactive

Cc1noc(C)c1CSc1nc2cc(Cl)c(Cl)cc2[nH]1
Activity (A549 [1]): inactive | Activity (A549 [2]): Active | Activity (A549 [3]): Active | inhibition call (active/inactive) [4]: Active | Activity (A549 [5]): Active | Activity (A549 [6]): Active | Activity (A549 [7]): Active | Activity (A549 [9]): Active

N#Cc1ccc(CSc2nc3ccccc3n2-c2ccccc2)cc1
Activity (A549 [1]): inactive | Activity (A549 [2]): Active

c1ccc(CSc2nc3ccccc3n2-c2ccccc2)cc1
Activity (A549 [1]): inactive

c1ccc2[nH]c(SCc3nc4ccccc4s3)nc2c1
Activity (A549 [1]): inactive | Activity (A549 [2]): Active | Activity (A549 [3]): Active | Activity (A549 [10]): Active | inhibition call (active/inactive) [4]: Active | Activity (A549 [5]): Active | Activity (A549 [6]): Active | Activity (A549 [7]): Active

Reference: ChEMBL document CHEMBL5257119, “New insight into the bioactivity of substituted benzimidazole derivatives: Repurposing from anti-HIV activity to cell migration inhibition targeting hnRNP M” (Bioorg Med Chem, 2023)
